Source: US12304890B2, “R-type pyridyloxycarboxylic acid, salt and ester derivative thereof, and preparation method therefor, and herbicidal composition and application thereof” (Qingdao Kingagroot Chemical Compound Co., Ltd., priority 2018, dated 2025)

What was measured:
Type in all cases: in vivo
[1] = test system: Monocotyledonous and dicotyledonous weed seeds and main crop seeds; test: Post-emergence test experiment, other weeds and crops (Table 4, 1000 g a.i./ha); settings: 3 weeks in greenhouse, fresh weight inhibition
How it was run: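 Growth inhibition is scored on fresh weight. Spray solutions were made in acetone with tween-80, diluted in water, plus 1.5 L/ha methyl oleate emulsible concentrate. Plants from greenhouse-grown weed and crop seeds were treated post-emergence at 2-3 leaves, 2 weeks after sowing.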

[2] = test system: Echinochloa crusgalli; test: Post-emergence test experiment, Echinochloa crusgalli; settings: 1000 g a.i./ha, 3 weeks in greenhouse, fresh weight inhibition
How it was run: (§1)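 Growth inhibition is given as reduction in fresh weight, assessed 3 weeks post-treatment in the greenhouse. Spray solutions (acetone, tween-80, water, with 1.5 L/ha methyl oleate concentrate synergist) were applied to weeds and crops at 2-3 leaves, 2 weeks from sowing.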

[3] = test system: Digitaria sanguinalis; test: Post-emergence test experiment, Digitaria sanguinalis; settings: 1000 g a.i./ha, 3 weeks in greenhouse, fresh weight inhibition
How it was run: as §1

Q: With `CCC(C)OC(=O)[C@@H](C)Oc1nc(F)c(Cl)c(N)c1Cl` (some centres unmarked) [Compound 2-81] as the compound, how does the “Activity level (growth inhibition rate), Abutilon theophrasti Medic.” value [1] read?
A: 5 (Level 5: the growth inhibition rate is greater than 85%)

Q: And the “Activity level (growth inhibition rate), Galium aparine” value [1]?
A: 5 (Level 5: the growth inhibition rate is greater than 85%)

Q: And the “Activity level (growth inhibition rate), Monochoria Vaginalis” value [1]?
A: 5 (Level 5: the growth inhibition rate is greater than 85%)

Q: And the “Activity level (growth inhibition rate), Echinochloa crusgalli” value [2]?
A: 5 (Level 5: the growth inhibition rate is greater than 85%)

Q: And the “Activity level (growth inhibition rate), Digitaria sanguinalis” value [3]?
A: 5 (Level 5: the growth inhibition rate is greater than 85%)

Q: Which results are given for `CCC(C)(C)SC(=O)C(C)Oc1nc(F)c(Cl)c(N)c1Cl` (centres unmarked) [Compound 2-100]?
A: Activity level (growth inhibition rate), Abutilon theophrasti Medic. [1]: 5 (Level 5: the growth inhibition rate is greater than 85%); Activity level (growth inhibition rate), Galium aparine [1]: 5 (Level 5: the growth inhibition rate is greater than 85%); Activity level (growth inhibition rate), Monochoria Vaginalis [1]: 5 (Level 5: the growth inhibition rate is greater than 85%); Activity level (growth inhibition rate), Echinochloa crusgalli [2]: 5 (Level 5: the growth inhibition rate is greater than 85%); Activity level (growth inhibition rate), Digitaria sanguinalis [3]: 5 (Level 5: the growth inhibition rate is greater than 85%)

Q: `CC(C)CCCOC(=O)[C@@H](C)Oc1nc(F)c(Cl)c(N)c1Cl` [Compound 2-107] was tested. Which “Activity level (growth inhibition rate), Abutilon theophrasti Medic.” value [1] did it give?
A: 5 (Level 5: the growth inhibition rate is greater than 85%)

Q: What about the “Activity level (growth inhibition rate), Galium aparine” value [1] of the same compound?
A: 5 (Level 5: the growth inhibition rate is greater than 85%)

Q: And the “Activity level (growth inhibition rate), Monochoria Vaginalis” value [1]?
A: 5 (Level 5: the growth inhibition rate is greater than 85%)

Q: What about the “Activity level (growth inhibition rate), Echinochloa crusgalli” value [2] of the same compound?
A: 5 (Level 5: the growth inhibition rate is greater than 85%)

Q: What about the “Activity level (growth inhibition rate), Digitaria sanguinalis” value [3] of the same compound?
A: 5 (Level 5: the growth inhibition rate is greater than 85%)

Q: For `CC(Oc1nc(F)c(Cl)c(N)c1Cl)C(=O)Oc1ccccc1` (centres unmarked) [Compound 2-299], which “Activity level (growth inhibition rate), Abutilon theophrasti Medic.” value [1] is on record?
A: 5 (Level 5: the growth inhibition rate is greater than 85%)

Q: What about the “Activity level (growth inhibition rate), Galium aparine” value [1] of the same compound?
A: 5 (Level 5: the growth inhibition rate is greater than 85%)

Q: What about the “Activity level (growth inhibition rate), Monochoria Vaginalis” value [1] of the same compound?
A: 5 (Level 5: the growth inhibition rate is greater than 85%)

Q: What about the “Activity level (growth inhibition rate), Echinochloa crusgalli” value [2] of the same compound?
A: 5 (Level 5: the growth inhibition rate is greater than 85%)

Q: What about the “Activity level (growth inhibition rate), Digitaria sanguinalis” value [3] of the same compound?
A: 5 (Level 5: the growth inhibition rate is greater than 85%)

Q: Which “Activity level (growth inhibition rate), Abutilon theophrasti Medic.” value [1] does the source give for `CC(Oc1nc(F)c(Cl)c(N)c1Cl)C(=O)SCc1ccccc1` (centres unmarked) [Compound 2-301] here?
A: 5 (Level 5: the growth inhibition rate is greater than 85%)

Q: And the “Activity level (growth inhibition rate), Galium aparine” value [1]?
A: 5 (Level 5: the growth inhibition rate is greater than 85%)

Q: And the “Activity level (growth inhibition rate), Monochoria Vaginalis” value [1]?
A: 5 (Level 5: the growth inhibition rate is greater than 85%)

Q: And the “Activity level (growth inhibition rate), Echinochloa crusgalli” value [2]?
A: 5 (Level 5: the growth inhibition rate is greater than 85%)

Q: And the “Activity level (growth inhibition rate), Digitaria sanguinalis” value [3]?
A: 5 (Level 5: the growth inhibition rate is greater than 85%)

Q: For `CC(Oc1nc(F)c(Cl)c(N)c1Cl)C(=O)OC[N+](=O)[O-]` (centres unmarked) [Compound 2-268], which “Activity level (growth inhibition rate), Abutilon theophrasti Medic.” value [1] is on record?
A: 5 (Level 5: the growth inhibition rate is greater than 85%)

Q: And the “Activity level (growth inhibition rate), Galium aparine” value [1]?
A: 5 (Level 5: the growth inhibition rate is greater than 85%)

Q: And the “Activity level (growth inhibition rate), Monochoria Vaginalis” value [1]?
A: 5 (Level 5: the growth inhibition rate is greater than 85%)

Q: What about the “Activity level (growth inhibition rate), Echinochloa crusgalli” value [2] of the same compound?
A: 5 (Level 5: the growth inhibition rate is greater than 85%)

Q: What about the “Activity level (growth inhibition rate), Digitaria sanguinalis” value [3] of the same compound?
A: 5 (Level 5: the growth inhibition rate is greater than 85%)

Q: Which “Activity level (growth inhibition rate), Abutilon theophrasti Medic.” value [1] does the source give for `CC(Oc1nc(F)c(Cl)c(N)c1Cl)C(=O)SCc1cccc(C(F)(F)F)c1` (centres unmarked) [Compound 2-330] here?
A: 5 (Level 5: the growth inhibition rate is greater than 85%)

Q: What about the “Activity level (growth inhibition rate), Galium aparine” value [1] of the same compound?
A: 5 (Level 5: the growth inhibition rate is greater than 85%)

Q: And the “Activity level (growth inhibition rate), Monochoria Vaginalis” value [1]?
A: 5 (Level 5: the growth inhibition rate is greater than 85%)

Q: And the “Activity level (growth inhibition rate), Echinochloa crusgalli” value [2]?
A: 5 (Level 5: the growth inhibition rate is greater than 85%)

Q: What about the “Activity level (growth inhibition rate), Digitaria sanguinalis” value [3] of the same compound?
A: 5 (Level 5: the growth inhibition rate is greater than 85%)

Q: Which “Activity level (growth inhibition rate), Abutilon theophrasti Medic.” value [1] does the source give for `C[C@@H](Oc1nc(F)c(Cl)c(N)c1Cl)C(=O)SCc1ccc(C(F)(F)F)cc1` [Compound 2-332] here?
A: 5 (Level 5: the growth inhibition rate is greater than 85%)

Q: What about the “Activity level (growth inhibition rate), Galium aparine” value [1] of the same compound?
A: 5 (Level 5: the growth inhibition rate is greater than 85%)

Q: What about the “Activity level (growth inhibition rate), Monochoria Vaginalis” value [1] of the same compound?
A: 5 (Level 5: the growth inhibition rate is greater than 85%)

Q: What about the “Activity level (growth inhibition rate), Echinochloa crusgalli” value [2] of the same compound?
A: 5 (Level 5: the growth inhibition rate is greater than 85%)

Q: What about the “Activity level (growth inhibition rate), Digitaria sanguinalis” value [3] of the same compound?
A: 5 (Level 5: the growth inhibition rate is greater than 85%)

Q: With `C[C@@H](Oc1nc(F)c(Cl)c(N)c1Cl)C(=O)SCC(C)(C)C` [Compound 2-92] as the compound, how does the “Activity level (growth inhibition rate), Abutilon theophrasti Medic.” value [1] read?
A: 5 (Level 5: the growth inhibition rate is greater than 85%)

Q: And the “Activity level (growth inhibition rate), Galium aparine” value [1]?
A: 5 (Level 5: the growth inhibition rate is greater than 85%)

Q: What about the “Activity level (growth inhibition rate), Monochoria Vaginalis” value [1] of the same compound?
A: 5 (Level 5: the growth inhibition rate is greater than 85%)

Q: What about the “Activity level (growth inhibition rate), Echinochloa crusgalli” value [2] of the same compound?
A: 5 (Level 5: the growth inhibition rate is greater than 85%)

Q: And the “Activity level (growth inhibition rate), Digitaria sanguinalis” value [3]?
A: 5 (Level 5: the growth inhibition rate is greater than 85%)

Q: With `Cc1cc(OC(=O)[C@@H](C)Oc2nc(F)c(Cl)c(N)c2Cl)n(C)n1` [Compound 2-352] as the compound, how does the “Activity level (growth inhibition rate), Abutilon theophrasti Medic.” value [1] read?
A: 5 (Level 5: the growth inhibition rate is greater than 85%)

Q: And the “Activity level (growth inhibition rate), Galium aparine” value [1]?
A: 5 (Level 5: the growth inhibition rate is greater than 85%)

Q: What about the “Activity level (growth inhibition rate), Monochoria Vaginalis” value [1] of the same compound?
A: 5 (Level 5: the growth inhibition rate is greater than 85%)

Q: What about the “Activity level (growth inhibition rate), Echinochloa crusgalli” value [2] of the same compound?
A: 5 (Level 5: the growth inhibition rate is greater than 85%)

Q: What about the “Activity level (growth inhibition rate), Digitaria sanguinalis” value [3] of the same compound?
A: 5 (Level 5: the growth inhibition rate is greater than 85%)

Q: What does the source list for `CC(C)=NOCCOC(=O)[C@@H](C)Oc1nc(C)c(Cl)c(N)c1Cl` [Compound 2-386]?
A: Activity level (growth inhibition rate), Abutilon theophrasti Medic. [1]: 5 (Level 5: the growth inhibition rate is greater than 85%); Activity level (growth inhibition rate), Galium aparine [1]: 5 (Level 5: the growth inhibition rate is greater than 85%); Activity level (growth inhibition rate), Monochoria Vaginalis [1]: 5 (Level 5: the growth inhibition rate is greater than 85%); Activity level (growth inhibition rate), Echinochloa crusgalli [2]: 5 (Level 5: the growth inhibition rate is greater than 85%); Activity level (growth inhibition rate), Digitaria sanguinalis [3]: 5 (Level 5: the growth inhibition rate is greater than 85%)

Q: Which “Activity level (growth inhibition rate), Abutilon theophrasti Medic.” value [1] does the source give for `COC(=O)[C@@H](C)Oc1ncc(Cl)c(N)c1C` [Compound 2-28] here?
A: 5 (Level 5: the growth inhibition rate is greater than 85%)

Q: And the “Activity level (growth inhibition rate), Galium aparine” value [1]?
A: 5 (Level 5: the growth inhibition rate is greater than 85%)

Q: What about the “Activity level (growth inhibition rate), Monochoria Vaginalis” value [1] of the same compound?
A: 5 (Level 5: the growth inhibition rate is greater than 85%)

Q: And the “Activity level (growth inhibition rate), Echinochloa crusgalli” value [2]?
A: 5 (Level 5: the growth inhibition rate is greater than 85%)

Q: What about the “Activity level (growth inhibition rate), Digitaria sanguinalis” value [3] of the same compound?
A: 5 (Level 5: the growth inhibition rate is greater than 85%)

Q: Which “Activity level (growth inhibition rate), Abutilon theophrasti Medic.” value [1] does the source give for `COC(=O)C(C)OC(=O)C(C)Oc1nc(F)c(Cl)c(N)c1Cl` (centres unmarked) [Compound 2-295] here?
A: 5 (Level 5: the growth inhibition rate is greater than 85%)

Q: What about the “Activity level (growth inhibition rate), Galium aparine” value [1] of the same compound?
A: 5 (Level 5: the growth inhibition rate is greater than 85%)

Q: And the “Activity level (growth inhibition rate), Monochoria Vaginalis” value [1]?
A: 5 (Level 5: the growth inhibition rate is greater than 85%)

Q: What about the “Activity level (growth inhibition rate), Echinochloa crusgalli” value [2] of the same compound?
A: 5 (Level 5: the growth inhibition rate is greater than 85%)

Q: And the “Activity level (growth inhibition rate), Digitaria sanguinalis” value [3]?
A: 5 (Level 5: the growth inhibition rate is greater than 85%)

Q: Which results are given for `C#CCSC(=O)C(C)Oc1nc(F)c(Cl)c(N)c1Cl` (centres unmarked) [Compound 2-274]?
A: Activity level (growth inhibition rate), Abutilon theophrasti Medic. [1]: 5 (Level 5: the growth inhibition rate is greater than 85%); Activity level (growth inhibition rate), Galium aparine [1]: 5 (Level 5: the growth inhibition rate is greater than 85%); Activity level (growth inhibition rate), Monochoria Vaginalis [1]: 5 (Level 5: the growth inhibition rate is greater than 85%); Activity level (growth inhibition rate), Echinochloa crusgalli [2]: 5 (Level 5: the growth inhibition rate is greater than 85%); Activity level (growth inhibition rate), Digitaria sanguinalis [3]: 5 (Level 5: the growth inhibition rate is greater than 85%)

Q: `CC(Oc1nc(F)c(Cl)c(N)c1Cl)C(=O)SCc1ccc(Br)cc1` (centres unmarked) [Compound 2-325] was tested. Which “Activity level (growth inhibition rate), Abutilon theophrasti Medic.” value [1] did it give?
A: 5 (Level 5: the growth inhibition rate is greater than 85%)

Q: What about the “Activity level (growth inhibition rate), Galium aparine” value [1] of the same compound?
A: 5 (Level 5: the growth inhibition rate is greater than 85%)

Q: And the “Activity level (growth inhibition rate), Monochoria Vaginalis” value [1]?
A: 5 (Level 5: the growth inhibition rate is greater than 85%)

Q: And the “Activity level (growth inhibition rate), Echinochloa crusgalli” value [2]?
A: 5 (Level 5: the growth inhibition rate is greater than 85%)

Q: And the “Activity level (growth inhibition rate), Digitaria sanguinalis” value [3]?
A: 5 (Level 5: the growth inhibition rate is greater than 85%)

Q: How did the “Activity level (growth inhibition rate), Abutilon theophrasti Medic.” value [1] turn out when `C[C@@H](Oc1nc(F)c(Cl)c(N)c1Cl)C(=O)OCCCl` [Compound 2-277] was run?
A: 5 (Level 5: the growth inhibition rate is greater than 85%)

Q: And the “Activity level (growth inhibition rate), Galium aparine” value [1]?
A: 5 (Level 5: the growth inhibition rate is greater than 85%)

Q: What about the “Activity level (growth inhibition rate), Monochoria Vaginalis” value [1] of the same compound?
A: 5 (Level 5: the growth inhibition rate is greater than 85%)

Q: And the “Activity level (growth inhibition rate), Echinochloa crusgalli” value [2]?
A: 5 (Level 5: the growth inhibition rate is greater than 85%)

Q: And the “Activity level (growth inhibition rate), Digitaria sanguinalis” value [3]?
A: 5 (Level 5: the growth inhibition rate is greater than 85%)
